In the supplement of paper PMC10307832:

How the values were obtained:
Assay in all cases: relative viability (nuclei count vs DMSO), 5 days (fraction); higher = more cells survive
IU1-47 + Palbociclib = compound: CC1=CC(=C(N1C2=CC=C(C=C2)Cl)C)C(=O)CN3CCCCC3 [IU1-47] + CC(=O)c1c(C)c2cnc(Nc3ccc(N4CCNCC4)cn3)nc2n(C2CCCC2)c1=O [Palbociclib] (partner 0.5 µM)
Outline: (§1)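 Five library-drug doses in √10 steps were combined with a fixed anchor-drug dose, or a single drug was given alone, by pin tool to lung cancer cell lines in 1536-well plates the day after seeding. Nuclei were stained and counted after 5 days. Relative viability is the nuclei count in treated wells over that in vehicle wells, taken as the median of duplicate plates.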

FG-4592 + Palbociclib = compound: Cc1nc(C(=O)NCC(=O)O)c(O)c2ccc(Oc3ccccc3)cc12 [FG-4592] + CC(=O)c1c(C)c2cnc(Nc3ccc(N4CCNCC4)cn3)nc2n(C2CCCC2)c1=O [Palbociclib] (partner 0.5 µM)
Outline: as §1

IU1-47 + AZD7762 = compound: CC1=CC(=C(N1C2=CC=C(C=C2)Cl)C)C(=O)CN3CCCCC3 [IU1-47] + NC(=O)Nc1cc(-c2cccc(F)c2)sc1C(=O)N[C@H]1CCCNC1 [AZD7762] (partner 0.2 µM)
Outline: as §1

IU1-47 + Luminespib = compound: CC1=CC(=C(N1C2=CC=C(C=C2)Cl)C)C(=O)CN3CCCCC3 [IU1-47] + CCNC(=O)c1noc(-c2cc(C(C)C)c(O)cc2O)c1-c1ccc(CN2CCOCC2)cc1 [Luminespib] (partner 0.01 µM)
Outline: as §1

Row | Cell Line | relative viability (IU1-47 + Palbociclib; first compound 0.08 µM) | relative viability (IU1-47 + Palbociclib; first compound 0.253 µM) | relative viability (IU1-47 + Palbociclib; first compound 0.8 µM) | relative viability (IU1-47 + Palbociclib; first compound 2.53 µM) | relative viability (IU1-47 + Palbociclib; first compound 8 µM) | relative viability (FG-4592 + Palbociclib; first compound 0.08 µM) | relative viability (FG-4592 + Palbociclib; first compound 0.253 µM) | relative viability (FG-4592 + Palbociclib; first compound 0.8 µM) | relative viability (FG-4592 + Palbociclib; first compound 2.53 µM) | relative viability (FG-4592 + Palbociclib; first compound 8 µM) | relative viability (IU1-47 + AZD7762; first compound 0.08 µM) | relative viability (IU1-47 + AZD7762; first compound 0.253 µM) | relative viability (IU1-47 + AZD7762; first compound 0.8 µM) | relative viability (IU1-47 + AZD7762; first compound 2.53 µM) | relative viability (IU1-47 + AZD7762; first compound 8 µM) | relative viability (IU1-47 + Luminespib; first compound 0.08 µM) | relative viability (IU1-47 + Luminespib; first compound 0.253 µM) | relative viability (IU1-47 + Luminespib; first compound 0.8 µM) | relative viability (IU1-47 + Luminespib; first compound 2.53 µM) | relative viability (IU1-47 + Luminespib; first compound 8 µM)
1 | NCI-H647 | 0.38 | 0.416 | 0.416 | 0.419 | 0.42 | 0.422 | 0.416 | 0.366 | 0.374 | 0.175 | 0.551 | 0.392 | 0.486 | 0.386 | 0.29 | 0.409 | 0.276 | 0.125 | 0.221 | 0.176
2 | NCI-H2170 | 0.461 | 0.463 | 0.455 | 0.411 | 0.382 | 0.423 | 0.351 | 0.345 | 0.381 | 0.282 | 1.04 | 1.05 | 0.985 | 0.76 | 0.976 | 0.706 | 1.13 | 0.759 | 0.66 | 0.994
3 | NCI-H2085 | 0.444 | 0.458 | 0.488 | 0.463 | 0.496 | 0.507 | 0.432 | 0.5 | 0.46 | 0.469 | 0.983 | 1.02 | 0.997 | 0.73 | 1.02 | 0.446 | 0.5 | 0.522 | 0.446 | 0.318
4 | NCI-H727 | 0.642 | 0.648 | 0.606 | 0.686 | 0.669 | 0.674 | 0.589 | 0.575 | 0.659 | 0.626 | 0.582 | 0.539 | 0.539 | 0.512 | 0.58 | 0.356 | 0.241 | 0.803 | 0.365 | 0.293
5 | NCI-H441 | 0.265 | 0.243 | 0.206 | 0.204 | 0.188 | 0.226 | 0.214 | 0.208 | 0.226 | 0.186 | 1.38 | 1.36 | 1.19 | 1.18 | 1.21 | 0.328 | 0.336 | 0.478 | 0.379 | 0.343
6 | LOU-NH91 | 0.524 | 0.533 | 0.539 | 0.431 | 0.507 | 0.534 | 0.514 | 0.54 | 0.517 | 0.544 | 0.824 | 0.775 | 0.826 | 0.815 | 0.765 | 0.326 | 0.299 | 0.294 | 0.276 | 0.336
7 | NCI-H3122 | 0.186 | 0.189 | 0.18 | 0.275 | 0.212 | 0.194 | 0.203 | 0.168 | 0.216 | 0.197 | 1.08 | 1.08 | 1.02 | 1.02 | 0.88 | – | 0.08 | 0.0904 | 0.108 | 0.106
8 | NCI-H460 | 0.24 | 0.123 | 0.16 | 0.153 | 0.105 | 0.204 | 0.168 | 0.173 | 0.155 | 0.119 | 0.639 | 0.635 | 0.686 | 0.754 | 0.628 | 0.0244 | 0.0322 | 0.0367 | 0.0341 | 0.0295
9 | NCI-H650 | 0.361 | 0.332 | 0.312 | 0.373 | 0.288 | 0.338 | 0.264 | 0.327 | 0.321 | 0.263 | 1.22 | 1 | 1.06 | 0.947 | 1.24 | 0.849 | 0.81 | 0.831 | 0.671 | 0.828
10 | NCI-H1793 | 0.306 | – | 0.317 | 0.359 | 0.276 | – | 0.256 | – | 0.39 | 0.293 | 0.716 | – | 0.516 | 0.319 | 0.338 | 0.177 | 0.188 | 0.165 | – | 0.171
11 | NCI-H1734 | 0.353 | 0.355 | 0.314 | 0.367 | 0.322 | 0.348 | 0.362 | 0.35 | 0.345 | 0.286 | 0.639 | 0.481 | 0.487 | 0.383 | 0.517 | 0.181 | 0.202 | 0.18 | – | 0.215
12 | LXF-289 | 0.634 | 0.679 | 0.603 | 0.58 | 0.619 | 0.551 | 0.563 | 0.615 | 0.588 | 0.603 | 1.25 | 1.14 | 1.21 | 1.07 | 1.02 | 0.822 | 0.629 | 0.916 | 0.5 | 0.468
13 | H3255 | 0.351 | 0.329 | 0.331 | 0.289 | 0.322 | 0.326 | 0.293 | 0.299 | 0.317 | 0.304 | 1.19 | 1.01 | 1.08 | 0.877 | 0.893 | 1.09 | 1 | 0.757 | 0.41 | 0.888
14 | 201T | 0.377 | 0.417 | 0.361 | 0.391 | 0.399 | 0.349 | 0.362 | 0.341 | 0.36 | 0.341 | 0.696 | 0.592 | 0.633 | 0.504 | 0.78 | 1.1 | 1.08 | 1.15 | – | 1.07
15 | NCI-H2126 | 0.392 | 0.352 | 0.359 | 0.364 | 0.395 | 0.335 | 0.358 | 0.324 | 0.372 | 0.334 | 1.01 | 1.08 | 1.14 | 0.712 | 0.837 | 0.928 | 0.975 | 0.949 | – | 0.899
16 | HOP-62 | 0.515 | 0.524 | 0.483 | 0.499 | 0.452 | 0.393 | 0.439 | 0.365 | 0.407 | 0.37 | 0.488 | 0.712 | 0.619 | 0.493 | 0.608 | 0.957 | 0.964 | 1.04 | 0.925 | 1.06
